Values after ≈ are worked out from the molar mass of the structure shown. Counter-ions that a name gives are not always drawn. Like-named read-outs stand apart in the source and are kept apart here.
Columns and labels:
[1] = test system: L. casei; assay: MIC against human gut microbiota; assay type: cell-based; details: L. casei ATCC 334, MRS broth, 5% CO2; for MIC: Lacticaseibacillus casei, ATCC334, read-out: minimum inhibitory concentration (MIC)
[2] = test system: Bif. adolescentis; assay: MIC against human gut microbiota; assay type: cell-based, Bifidobacterium adolescentis; details: Bif. adolescentis HM- 633, BHIS broth, anaerobic; for MIC: Bifidobacterium adolescentis, read-out: minimum inhibitory concentration (MIC)
[3] = test system: L. brevis; assay: MIC against human gut microbiota; assay type: cell-based, Lactobacillus brevis; details: L. brevis ATCC-14864, MRS broth, 5% CO2; for MIC: Levilactobacillus brevis, ATCC14864, read-out: minimum inhibitory concentration (MIC)
[4] = test system: E. fecalis; assay: MIC against human gut microbiota; assay type: cell-based, Enterococcus faecalis; details: E. fecalis HM-970, TSB, aerobic; for MIC: Enterococcus faecalis, read-out: minimum inhibitory concentration (MIC)
[5] = test system: Bif. angulatum; assay: MIC against human gut microbiota; assay type: cell-based, Bifidobacterium angulatum; details: Bif. angulatum HM- 1189, BHIS broth, anaerobic; for MIC: Bifidobacterium angulatum, read-out: minimum inhibitory concentration (MIC)
[6] = test system: mycobacteria; design: method as in PMID 33916775; details: cited from earlier work
[7] = test system: C. difficile ATCC BAA-1870; assay: MIC of active hits by broth microdilution; details: C. difficile ATCC BAA-1870, 48 h anaerobic; for MIC: Clostridioides difficile, ATCCBAA1870, 48 h
[8] = test system: E. faecium; assay: MIC against human gut microbiota; assay type: cell-based, Enterococcus faecium; details: E. faecium HM-202, TSB, aerobic; for MIC: Enterococcus faecium, read-out: minimum inhibitory concentration (MIC)
[9] = test system: C. difficile clinical isolates; assay: MIC against a panel of 20 C. difficile clinical isolates (broth microdilution); assay type: cell-based, Clostridioides difficile; details: for MIC50: concentration that inhibited 50% of the 20 C. difficile clinical isolates; for MIC90: concentration that inhibited 90% of the 20 C. difficile clinical isolates; for MIC: read-out: minimum inhibitory concentration (MIC)
[10] = test system: Bif. breve; assay: MIC against human gut microbiota; assay type: cell-based, Bifidobacterium breve; details: Bif. breve ATCC 15700, BHIS broth, anaerobic; for MIC: Bifidobacterium breve, ATCC15700, read-out: minimum inhibitory concentration (MIC)
[11] = test system: Bif. longum; assay: MIC against human gut microbiota; assay type: cell-based, Bifidobacterium longum; details: anaerobic; for MIC: Bifidobacterium longum, read-out: minimum inhibitory concentration (MIC)
[12] = test system: B. dorei; assay: MIC against human gut microbiota; assay type: cell-based, Bacteroides dorei; details: B. dorei HM- 719, BHIS broth, anaerobic; for MIC: Phocaeicola dorei, read-out: minimum inhibitory concentration (MIC)
[13] = test system: L. rhamanosus; assay: MIC against human gut microbiota; assay type: cell-based, Lactobacillus rhamnoosus; details: L. rhamanosus ATCC-53103, MRS broth, 5% CO2; for MIC: Lactobacillus, ATCC53103, read-out: minimum inhibitory concentration (MIC)
[14] = test system: B. fragilis; assay: MIC against human gut microbiota; assay type: cell-based, Bacteroides fragilis; details: anaerobic; for MIC: Bacteroides fragilis, read-out: minimum inhibitory concentration (MIC)
[15] = test system: Bifidobacterium species; assay: MIC against human gut microbiota, summary in text; assay type: cell-based; details: summary over the Bifidobacterium strains of Table 4
[16] = test system: Acinetobacter calcoaceticus; design: method as in PMID 31105656; details: cited from earlier work
[17] = test system: enterococcal species; assay: MIC against human gut microbiota, summary in text; assay type: cell-based; details: summary over the Enterococcus strains of Table 4
[18] = test system: A. baumannii; design: method as in PMID 31105656; details: cited from earlier work
[19] = test system: vancomycin-resistant enterococci (VRE); design: method as in PMID 26765953; details: cited from earlier work
[20] = test system: MRSA; design: method as in PMID 26765953; details: cited from earlier work
[21] = Bif. longum HM- 845, BHIS broth
[22] = Bif. longum HM- 846, BHIS broth
[23] = Bif. longum HM- 847, BHIS broth
[24] = Bif. longum HM- 848, BHIS broth
[25] = B. fragilis HM- 709, BHIS broth
[26] = B. fragilis HM- 718, BHIS broth
[27] = Clostridioides difficile, 48 h, read-out: MIC50
[28] = Clostridioides difficile, ATCC630, C. difficile ATCC 630
[29] = Clostridioides difficile, ATCC43255, C. difficile ATCC 43255
[30] = Clostridioides difficile, ATCCBAA1870, C. difficile ATCC BAA-1870 (Ribotype-027), purchased compounds, panel test
[31] = Clostridioides difficile, C. difficile CD-1 (Ribotype-027)
[32] = Clostridioides difficile, C. difficile CD-6 (Ribotype-027)
[33] = Clostridioides difficile, C. difficile CD-10(Ribotype-027)
[34] = Clostridioides difficile, C. difficile CD-12
[35] = Clostridioides difficile, C. difficile CD-13
[36] = Clostridioides difficile, C. difficile CD-15
[37] = Clostridioides difficile, C. difficile CD-22
[38] = Clostridioides difficile, C. difficile CD-23
[39] = Clostridioides difficile, C. difficile CD-24
[40] = Clostridioides difficile, C. difficile CD-26 (Ribotype-027)
[41] = Clostridioides difficile, C. difficile CD-28
[42] = Clostridioides difficile, C. difficile CD-29 (Ribotype-027)
[43] = Clostridioides difficile, C. difficile CD-30
[44] = Clostridioides difficile, C. difficile NR-49302
[45] = Clostridioides difficile, C. difficile NR-49304
[46] = Clostridioides difficile, C. difficile NR-49308
[47] = Clostridioides difficile, C. difficile NR-49319
[48] = Clostridioides difficile, read-out: MIC50
[49] = Clostridioides difficile, read-out: MIC90

Compound: Milbemycin oxime
- minimum inhibitory concentration (MIC) [1]: >256 µg/mL
- minimum inhibitory concentration (MIC) [2]: 4 µg/mL
- minimum inhibitory concentration (MIC) [3]: >256 µg/mL
- minimum inhibitory concentration (MIC) [4]: 8 µg/mL
- minimum inhibitory concentration (MIC) [5]: 4 µg/mL
- MIC (antimycobacterial activity) [6]: < 8 µg/mL
- MIC (μM) [7]: 4 µM
- MIC (μg/mL) [7]: 4.39 µg/mL
- minimum inhibitory concentration (MIC) [8]: 4 µg/mL
- minimum inhibitory concentration (MIC) ([9]; C. difficile ATCC 630): 4 µg/mL
- minimum inhibitory concentration (MIC) ([9]; C. difficile ATCC 43255): 4 µg/mL
- minimum inhibitory concentration (MIC) ([9]; C. difficile ATCC BAA-1870 (Ribotype-027), purchased compounds, panel test): 8 µg/mL
- minimum inhibitory concentration (MIC) ([9]; C. difficile CD-1 (Ribotype-027)): 4 µg/mL
- minimum inhibitory concentration (MIC) ([9]; C. difficile CD-6 (Ribotype-027)): 4 µg/mL
- minimum inhibitory concentration (MIC) ([9]; C. difficile CD-10(Ribotype-027)): 4 µg/mL
- minimum inhibitory concentration (MIC) ([9]; C. difficile CD-12): 4 µg/mL
- minimum inhibitory concentration (MIC) ([9]; C. difficile CD-13): 8 µg/mL
- minimum inhibitory concentration (MIC) ([9]; C. difficile CD-15): 4 µg/mL
- minimum inhibitory concentration (MIC) ([9]; C. difficile CD-22): 8 µg/mL
- minimum inhibitory concentration (MIC) ([9]; C. difficile CD-23): 4 µg/mL
- minimum inhibitory concentration (MIC) ([9]; C. difficile CD-24): 4 µg/mL
- minimum inhibitory concentration (MIC) ([9]; C. difficile CD-26 (Ribotype-027)): 4 µg/mL
- minimum inhibitory concentration (MIC) ([9]; C. difficile CD-28): 8 µg/mL
- minimum inhibitory concentration (MIC) ([9]; C. difficile CD-29 (Ribotype-027)): 4 µg/mL
- minimum inhibitory concentration (MIC) ([9]; C. difficile CD-30): 4 µg/mL
- minimum inhibitory concentration (MIC) ([9]; C. difficile NR-49302): 4 µg/mL
- minimum inhibitory concentration (MIC) ([9]; C. difficile NR-49304): 8 µg/mL
- minimum inhibitory concentration (MIC) ([9]; C. difficile NR-49308): 4 µg/mL
- minimum inhibitory concentration (MIC) ([9]; C. difficile NR-49319): 8 µg/mL
- MIC50 [9]: 4 µg/mL
- MIC90 [9]: 8 µg/mL
- minimum inhibitory concentration (MIC) [10]: 4 µg/mL
- minimum inhibitory concentration (MIC) [11, 21]: 8 µg/mL
- minimum inhibitory concentration (MIC) [11, 22]: 8 µg/mL
- minimum inhibitory concentration (MIC) [11, 23]: 8 µg/mL
- minimum inhibitory concentration (MIC) [11, 24]: 8 µg/mL
- minimum inhibitory concentration (MIC) [12]: >256 µg/mL
- minimum inhibitory concentration (MIC) [13]: >256 µg/mL
- minimum inhibitory concentration (MIC) [14, 25]: 32 µg/mL
- minimum inhibitory concentration (MIC) [14, 26]: >256 µg/mL

Compound: CCCCc1oc2ccc(NS(C)(=O)=O)cc2c1C(=O)c1ccc(OCCCN(CCCC)CCCC)cc1 [Dronedarone]
- MIC [1]: 64 µg/mL (≈ 115 µM)
- MIC [2]: 8 µg/mL (≈ 14.4 µM)
- MIC [3]: 32 µg/mL (≈ 57.5 µM)
- MIC [4]: 4 µg/mL (≈ 7.18 µM)
- MIC [5]: 8 µg/mL (≈ 14.4 µM)
- MIC (μM) [7]: 8 µM
- MIC [7]: 4.45 µg/mL
- MIC [8]: 8 µg/mL (≈ 14.4 µM)
- MIC50 [9, 27]: 4 µg/mL (≈ 7.18 µM)
- MIC [9, 28]: 4 µg/mL (≈ 7.18 µM)
- MIC [9, 29]: 4 µg/mL (≈ 7.18 µM)
- MIC [9, 30]: 4 µg/mL (≈ 7.18 µM)
- MIC [9, 31]: 4 µg/mL (≈ 7.18 µM)
- MIC [9, 32]: 4 µg/mL (≈ 7.18 µM)
- MIC [9, 33]: 4 µg/mL (≈ 7.18 µM)
- MIC [9, 34]: 4 µg/mL (≈ 7.18 µM)
- MIC [9, 35]: 4 µg/mL (≈ 7.18 µM)
- MIC [9, 36]: 4 µg/mL (≈ 7.18 µM)
- MIC [9, 37]: 2 µg/mL (≈ 3.59 µM)
- MIC [9, 38]: 8 µg/mL (≈ 14.4 µM)
- MIC [9, 39]: 2 µg/mL (≈ 3.59 µM)
- MIC [9, 40]: 4 µg/mL (≈ 7.18 µM)
- MIC [9, 41]: 8 µg/mL (≈ 14.4 µM)
- MIC [9, 42]: 2 µg/mL (≈ 3.59 µM)
- MIC [9, 43]: 8 µg/mL (≈ 14.4 µM)
- MIC [9, 44]: 4 µg/mL (≈ 7.18 µM)
- MIC [9, 45]: 2 µg/mL (≈ 3.59 µM)
- MIC [9, 46]: 4 µg/mL (≈ 7.18 µM)
- MIC [9, 47]: 8 µg/mL (≈ 14.4 µM)
- MIC50 [9, 48]: 4 µg/mL (≈ 7.18 µM)
- MIC90 [9, 49]: 8 µg/mL (≈ 14.4 µM)
- MIC [10]: 8 µg/mL (≈ 14.4 µM)
- MIC [11, 21]: 8 µg/mL (≈ 14.4 µM)
- MIC [11, 22]: 8 µg/mL (≈ 14.4 µM)
- MIC [11, 23]: 8 µg/mL (≈ 14.4 µM)
- MIC [11, 24]: 8 µg/mL (≈ 14.4 µM)
- MIC [12]: 8 µg/mL (≈ 14.4 µM)
- MIC [13]: 128 µg/mL (≈ 230 µM)
- MIC [14, 25]: 8 µg/mL (≈ 14.4 µM)
- MIC [14, 26]: 8 µg/mL (≈ 14.4 µM)
- MIC [15]: 2 to 8 µg/mL (≈ 3.59 to 14.4 µM)

Compound: N=C(N/N=C/c1ccc(Cl)cc1)N/N=C/c1ccc(Cl)cc1 [Robenidine hydrochloride]
- MIC [1]: 16 µg/mL
- MIC [2]: ≤ 2 µg/mL
- MIC [16]: 2 µg/mL
- MIC [3]: 8 µg/mL
- MIC [4]: ≤ 2 µg/mL
- MIC [5]: ≤ 2 µg/mL
- MIC [17]: ≤ 2 µg/mL
- MIC (μM) [7]: 8 µM
- MIC [7]: 2.97 µg/mL
- MIC [18]: 8 µg/mL
- MIC [8]: ≤ 2 µg/mL
- MIC [19]: 4.7 µM
- MIC50 [9, 27]: 1 µg/mL
- MIC [9, 28]: 1 µg/mL
- MIC [9, 29]: 1 µg/mL
- MIC [9, 30]: 2 µg/mL
- MIC [9, 31]: 1 µg/mL
- MIC [9, 32]: 1 µg/mL
- MIC [9, 33]: 1 µg/mL
- MIC [9, 34]: 1 µg/mL
- MIC [9, 35]: 2 µg/mL
- MIC [9, 36]: 2 µg/mL
- MIC [9, 37]: 2 µg/mL
- MIC [9, 38]: 1 µg/mL
- MIC [9, 39]: 1 µg/mL
- MIC [9, 40]: 1 µg/mL
- MIC [9, 41]: 1 µg/mL
- MIC [9, 42]: 1 µg/mL
- MIC [9, 43]: 2 µg/mL
- MIC [9, 44]: 1 µg/mL
- MIC [9, 45]: 1 µg/mL
- MIC [9, 46]: 1 µg/mL
- MIC [9, 47]: 1 µg/mL
- MIC50 [9, 48]: 1 µg/mL
- MIC90 [9, 49]: 2 µg/mL
- MIC [10]: ≤ 2 µg/mL
- MIC [11, 21]: ≤ 2 µg/mL
- MIC [11, 22]: ≤ 2 µg/mL
- MIC [11, 23]: ≤ 2 µg/mL
- MIC [11, 24]: ≤ 2 µg/mL
- MIC [12]: ≤ 2 µg/mL
- MIC [13]: 16 µg/mL
- MIC [14, 25]: ≤ 2 µg/mL
- MIC [14, 26]: ≤ 2 µg/mL
- MIC [20]: 8.1 µM
